Data taken from paper PMC8231969, “Characterization of Two NMN Deamidase Mutants as Possible Probes for an NMN Biosensor” (International Journal of Molecular Sciences, 2021).
Where two headings read alike, the source gives them in different places.

Assays:
S29A PncC = biological target: T1, S29A PncC (Escherichia coli, UniProt P0A6G3, S29A); type: binding, E. coli
T1 construct: made in house; host or cells: E. coli BL21(DE3)
Excerpt: (§1) Experimental data were processed using the OriginPro 8.0 (OriginLab Corporation, Northampton, MA, USA). A non-linear curve analysis (Hill1 plot) was used for plotting the F0/F values in function of the metabolite concentration, to obtain the Kd value.

K61Q PncC = biological target: T2, K61Q PncC (Escherichia coli, UniProt P0A6G3, K61Q); type: binding, E. coli
T2 construct: made in house; host or cells: E. coli BL21(DE3)
Description: as §1
Percentage of the K61Q protein that would exist in complex with NMN in a cellular setting was calculated based on the Kd value, by using the equation: %=100/1+Kd/[NMN]

[1] = system: glutamine binding protein (GlnBP); details: GlnBP, high concentration of nucleotide
Description: Steady-state measurements were performed using an ISS_K2 fluorometer (ISS, Urbana-Champaign, IL, USA), equipped with a one-cell temperature-controlled sample holder. […] Excitation and emission slit widths were fixed at 0.5 and 1.0 nm, respectively. […] The nucleotides were added to reach the indicated final concentration (from 0.18 to 96 µM) with an incubation interval of 10 min. Triplicate readings were done for each experimental point. Experiments were repeated three times (for NMN and NaMN) or twice (for all the other metabolites). Controls experiments were performed using the E. coli Glutamine Binding Protein (GlnBP, 3µM), with increasing concentration of NMN or NaMN, at the same conditions.
Percentages of reduction of fluorescence intensities compared to buffer, were calculated as follow: (normalized fluorescence in presence of analyte at a given [µM]/normalized fluorescence in presence of corresponding volume of buffer) × 100.

T2 sequence (P0A6G3 whole entry K61Q): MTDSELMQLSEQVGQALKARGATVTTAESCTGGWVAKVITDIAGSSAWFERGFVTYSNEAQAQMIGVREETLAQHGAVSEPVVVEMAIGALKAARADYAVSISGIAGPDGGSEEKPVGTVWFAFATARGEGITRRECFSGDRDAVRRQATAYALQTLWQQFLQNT
T1 sequence (P0A6G3 whole entry S29A): as the sequence (P0A6G3 whole entry K61Q) above, with S29A, Q61K counted along it

Compound	S29A PncC fluorescence quenching (%) vs buffer (S29A PncC; nucleotide 0.185 µM) [%]	S29A PncC fluorescence quenching (%) vs buffer (S29A PncC; nucleotide 0.375 µM) [%]	S29A PncC fluorescence quenching (%) vs buffer (S29A PncC; nucleotide 0.75 µM) [%]	S29A PncC fluorescence quenching (%) vs buffer (S29A PncC; nucleotide 1.5 µM) [%]	S29A PncC fluorescence quenching (%) vs buffer (S29A PncC; nucleotide 3 µM) [%]	S29A PncC fluorescence quenching (%) vs buffer (S29A PncC; nucleotide 6 µM) [%]	S29A PncC fluorescence quenching (%) vs buffer (S29A PncC; nucleotide 12 µM) [%]	S29A PncC fluorescence quenching (%) vs buffer (S29A PncC; nucleotide 24 µM) [%]	S29A PncC fluorescence quenching (%) vs buffer (S29A PncC; nucleotide 48 µM) [%]	K61Q PncC fluorescence quenching (%) vs buffer (K61Q PncC; nucleotide 0.185 µM) [%]	K61Q PncC fluorescence quenching (%) vs buffer (K61Q PncC; nucleotide 0.375 µM) [%]	K61Q PncC fluorescence quenching (%) vs buffer (K61Q PncC; nucleotide 0.75 µM) [%]	K61Q PncC fluorescence quenching (%) vs buffer (K61Q PncC; nucleotide 1.5 µM) [%]	K61Q PncC fluorescence quenching (%) vs buffer (K61Q PncC; nucleotide 3 µM) [%]	K61Q PncC fluorescence quenching (%) vs buffer (K61Q PncC; nucleotide 6 µM) [%]	K61Q PncC fluorescence quenching (%) vs buffer (K61Q PncC; nucleotide 12 µM) [%]	K61Q PncC fluorescence quenching (%) vs buffer (K61Q PncC; nucleotide 24 µM) [%]	K61Q PncC fluorescence quenching (%) vs buffer (K61Q PncC; nucleotide 48 µM) [%]	reduction of fluorescence of GlnBP [1]	further results
NC(=O)c1ccc[n+]([C@@H]2O[C@H](COP(=O)([O-])OP(=O)(O)OC[C@H]3O[C@@H](n4cnc5c(N)ncnc54)[C@H](O)[C@@H]3O)[C@@H](O)[C@H]2O)c1 [NAD, nicotinamide adenine dinucleotide]	0.52	0.32	0.80	0	0.19	0.32	1.35	2.54	4.58	0.63	1.39	1.57	0.80	0.85	0	0.65	0.36	0.72	6.6%	–
NC(=O)c1ccc[n+]([C@@H]2O[C@H](COP(=O)(O)OP(=O)([O-])OC[C@H]3O[C@@H](n4cnc5c(N)ncnc54)[C@H](OP(=O)(O)O)[C@@H]3O)[C@@H](O)[C@H]2O)c1 [NADP]	0	0	0.67	1.60	2.74	2.87	3.89	4.31	6.36	0	0.06	0.29	0.55	0.42	0	1.20	1.59	2.90	4.8%	K61Q PncC fluorescence quenching (%) vs buffer (K61Q PncC; nucleotide 96 µM): 5.1%
NC(=O)c1ccc[n+]([C@@H]2O[C@H](CO)[C@@H](O)[C@H]2O)c1 [NR, nicotinamide riboside]	0	0.12	0.80	0.96	1.84	1.98	2.29	3.13	3.51	2.13	2.97	3.37	3.71	3.13	2.36	2.7	2.1	1.79	do not affect	S29A PncC fluorescence quenching (%) vs buffer (S29A PncC; nucleotide 96 µM (maximum quenching)): 4.48%
